EC50 and Emax data for 13 compounds are collected here from US20220041606A1, “POSITIVE ALLOSTERIC MODULATORS OF THE MUSCARINIC ACETYLCHOLINE RECEPTOR M1” (Vanderbilt University, priority 2020, published 2022).

The term EC50 denotes the midpoint of the concentration-response curve. Broadly, the Emax is the maximal effect, on the per cent scale that the assay sets.

In experiment [1] the target is T1, human mAChR M1 (Homo sapiens, UniProt P11229).
T1 construct: host or cells: CHO-K1 cells (ATCC), stably transfected using Lipofectamine2000
T1 sequence (P11229 1-460): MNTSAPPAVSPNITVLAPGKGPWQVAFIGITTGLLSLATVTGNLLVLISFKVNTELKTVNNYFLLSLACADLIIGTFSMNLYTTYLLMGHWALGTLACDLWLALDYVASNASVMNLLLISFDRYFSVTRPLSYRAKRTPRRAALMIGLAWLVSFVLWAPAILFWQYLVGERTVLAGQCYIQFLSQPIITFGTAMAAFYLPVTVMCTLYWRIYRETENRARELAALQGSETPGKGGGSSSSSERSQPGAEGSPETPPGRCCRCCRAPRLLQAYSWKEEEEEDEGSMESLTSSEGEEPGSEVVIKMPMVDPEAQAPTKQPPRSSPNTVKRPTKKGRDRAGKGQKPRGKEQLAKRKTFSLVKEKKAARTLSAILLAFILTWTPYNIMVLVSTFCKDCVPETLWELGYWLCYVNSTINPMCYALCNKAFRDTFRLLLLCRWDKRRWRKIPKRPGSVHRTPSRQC
In words: mAChR M1 cell-based functional assay (calcium mobilization), agonist activity upon compound addition. The following applies: CHO-K1 cells expressing hM1; for EC50: compound alone, before acetylcholine addition; for Emax: relative to the maximum for acetylcholine. The source says:
(§1) Chinese hamster ovary (CHO-K1) cells stably expressing rat (r)M1 were purchased from the American Type Culture Collection and cultured according to their indicated protocol. CHO cells stably expressing human (h)M2, hM3, and hM5 were described previously (Levey, et al., 1991); hM1 and hM4 cDNAs were purchased from Missouri S&T cDNA Resource; rM4 cDNA was provided by T. L. Bonner (National Institutes of Health, Bethesda, MID). rM2 and rM3 were cloned from a rat brain cDNA library and sequence verified. hM1, rM2, rM3, hM4, and rM4 cDNAs were used to stably transfect CHO-K1 cells purchased from the American Type Culture Collection using Lipofectamine2000. To make stable rM2, hM2, rM3, hM4, and rM4 cell lines for use in calcium mobilization assays, these cells also were stably transfected with a chimeric G-protein (Gqi5) (provided by B. R. Conklin, University of California, San Francisco) using Lipofectamine 2000. rM1, hM1, rM3, hM3, rM5, and hM5 cells were grown in Ham's F-12 medium containing 10% heat-inactivated fetal bovine serum (FBS), 20 mM HEPES, and 50 μg/mL G418 sulfate. rM2-Gq15, hM2-Gqi5, and hM4-Gqi5 cells were grown in the same medium also containing 500 μg/mL Hygromycin B. Stable rM4-Gqi5 cells were grown in DMEM containing 10% heat-inactivated FBS, 20 mM HEPES, 400 μg/mL G418 sulfate, and 500 μg/mL Hygromycin B.
(§2) For high throughput measurement of agonist-evoked increases in intracellular calcium, CHO-K1 cells stably expressing muscarinic receptors were plated in growth medium lacking G418 and hygromycin at 15,000 cells/20 μL/well in Greiner 384-well black-walled, tissue culture (TC)-treated, clear-bottom plates (VWR). Cells were incubated overnight at 37° C. and 5% CO2. The next day, cells were washed using an ELX 405 (BioTek) with four washes (80 μL) of assay buffer then aspirated to 20 μL. Next, 20 μL of 16 μM Fluo-4/acetoxymethyl ester (Invitrogen, Carlsbad, Calif.) prepared as a 2.3 mM stock in DMSO and mixed in a 1:1 ratio with 10% (w/v) Pluronic F-127 and diluted in assay buffer was added to the wells and the cell plates were incubated for 50 min at 37° C. and 5% CO2. Dye was removed by washing with the ELX 405 (four 80 μL washes of assay buffer) then aspirated to 20 μL. Compound master plates were formatted in an 11 point CRC format (1:3 dilutions) in 100% DMSO with a starting concentration of 10 mM using the BRAVO liquid handler (Agilent). Test compound CRCs were then transferred to daughter plates (240 nL) using the Echo acoustic plate reformatter (Labcyte, Sunnyvale, Calif.) and then diluted into assay buffer (40 μL) to a 2× stock using a Thermo Fisher Combi (Thermo Fisher Scientific, Waltham, Mass.).
(§3) Calcium flux was measured using the Functional Drug Screening System (FDSS) 6000 (Hamamatsu Corporation, Tokyo, Japan) as an increase in the fluorescent static ratio. Compounds were applied to cells (20 μL, 2×) using the automated system of the FDSS 6000 at 4 s into the 300 s protocol and the data were collected at 1 Hz. At 144 s into the 300s protocol, 10 μL of an EC20 concentration of the muscarinic receptor agonist acetylcholine was added (5×), followed by the addition of 12 μL an EC80 concentration of acetylcholine at the 230 s time point (5×). Agonist activity was analyzed as a concentration-dependent increase in calcium mobilization upon compound addition. Emax values for agonist activity are expressed relative to the maximum for acetylcholine. Positive allosteric modulator activity was analyzed as a concentration-dependent increase in the EC20 acetylcholine response. Antagonist activity was analyzed as a concentration-dependent decrease in the EC80 acetylcholine response. Concentration-response curves were generated using a four-parameter logistical equation in XLfit curve fitting software (IDBS, Bridgewater, N.J.) for Excel (Microsoft, Redmond, Wash.) or Prism (GraphPad Software, Inc., San Diego, Calif.). […]

Experiment [2] has as its target T1, human mAChR M1. In words: mAChR M1 cell-based functional assay (calcium mobilization), PAM activity: increase in the EC20 acetylcholine response. Particulars: CHO-K1 cells expressing hM1; potentiation of EC20 acetylcholine response.
Text: as §1, §2, §3

Consider `O=C(N[C@H]1CCCC[C@@H]1O)c1cn(Cc2ccc(-n3cccn3)cc2)c(=O)c2ccoc12` [Compound D3, 5-(4-(1H-pyrazol-1-yl)benzyl)-N-((1S,2S)-2-hydroxycyclohexyl)-4-oxo-4,5-dihydrofuro[3,2-c]pyridine-7-carboxamide], for which, on human mAChR M1 [1], the EC50 was greater than 10 µM and the Emax is less than 5%. Moreover, on human mAChR M1 [2], the EC50 came to 5.12 µM and the Emax amounted to 62%.
As for `Cn1cc2c(-c3cc(F)c(Cn4cc(C(=O)N[C@H]5CCCCC[C@@H]5O)c5nccn5c4=O)c(F)c3)cccc2n1` [Compound B19, 6-(2,6-difluoro-4-(2-methyl-2H-indazol-4-yl)benzyl)-N-((1S,2S)-2-hydroxycycloheptyl)-5-oxo-5,6-dihydroimidazo[1,2-c]pyrimidine-8-carboxamide], the figures for the EC50 on human mAChR M1 [1] and on human mAChR M1 [2] were 5.24 µM and 0.47 µM, respectively. Moreover, the results for the Emax at human mAChR M1 [1] and at human mAChR M1 [2] were 51% and 42%, respectively.
In the case of `Cc1cccc(-c2cc(F)c(Cn3cc(C(=O)N[C@H]4CCOC[C@@H]4O)c4ncccc4c3=O)c(F)c2)c1` [Compound A31, 6-((3,5-difluoro-3′-methyl-[1,1′-biphenyl]-4-yl)methyl)-N-((3R,4S)-3-hydroxytetrahydro-2H-pyran-4-yl)-5-oxo-5,6-dihydro-1,6-naphthyridine-8-carboxamide], at human mAChR M1 [1], the EC50 is greater than 10 µM and the Emax is less than 5%. Besides, at human mAChR M1 [2], the EC50 amounted to 2.6 µM and the Emax was 70%.
For `Cc1cccc(-c2ccc(Cn3cc(C(=O)N[C@H]4CCOC[C@@H]4O)c4ncccc4c3=O)c(F)c2)c1` [Compound A29, 6-((3-fluoro-3′-methyl-[1,1′-biphenyl]-4-yl)methyl)-N-((3R,4S)-3-hydroxytetrahydro-2H-pyran-4-yl)-5-oxo-5,6-dihydro-1,6-naphthyridine-8-carboxamide] the same measures were greater than 10 µM, less than 5%, 4.84 µM and 61%.
As for `Cc1cc(C)cc(-c2cc(F)c(Cn3cc(C(=O)N[C@H]4CCOC[C@@H]4O)c4ncccc4c3=O)c(F)c2)c1` [Compound A32, 6-((3,5-difluoro-3′,5′-dimethyl-[1,1′-biphenyl]-4-yl)methyl)-N-((3R,4S)-3-hydroxytetrahydro-2H-pyran-4-yl)-5-oxo-5,6-dihydro-1,6-naphthyridine-8-carboxamide], at human mAChR M1 [1], the concentration giving a half-maximal response (EC50) was greater than 10 µM and the Emax was less than 5%. Besides, at human mAChR M1 [2], the EC50 is 2.24 µM and the maximal effect (Emax) is 70%.
Turning to `Cn1cc(-c2ccc(Cn3cc(C(=O)N[C@H]4CCOC[C@@H]4O)c4nccnc4c3=O)c(F)c2)cn1` [Compound A77, 6-(2-fluoro-4-(1-methyl-1H-pyrazol-4-yl)benzyl)-N-((3R,4S)-3-hydroxytetrahydro-2H-pyran-4-yl)-5-oxo-5,6-dihydropyrido[3,4-b]pyrazine-8-carboxamide], the Emax on human mAChR M1 [1] was 18%. Also, at human mAChR M1 [2], the EC50 amounted to 4.21 µM and the Emax is 72%.
Take `Cn1cc2c(-c3cc(F)c(Cn4cc(C(=O)NC5(CO)CCOC5)c5nccnc5c4=O)c(F)c3)cccc2n1` (stereo not drawn) [Compound A72, 6-(2,6-difluoro-4-(2-methyl-2H-indazol-4-yl)benzyl)-N-(3-(hydroxymethyl)tetrahydrofuran-3-yl)-5-oxo-5,6-dihydropyrido[3,4-b]pyrazine-8-carboxamide]: at human mAChR M1 [1], the EC50 was greater than 10 µM and the Emax is less than 5%. For the same compound, on human mAChR M1 [2], the EC50 was no less than 10 µM and the maximum response (Emax) came out at 32%.
In the case of `Cc1cc(-c2cc(F)c(Cn3cc(C(=O)N[C@H]4CCCC[C@@H]4O)c4ncccc4c3=O)c(F)c2)ccn1` [Compound A37, 6-(2,6-difluoro-4-(2-methylpyridin-4-yl)benzyl)-N-((1S,2S)-2-hydroxycyclohexyl)-5-oxo-5,6-dihydro-1,6-naphthyridine-8-carboxamide], at human mAChR M1 [1], the EC50 was greater than 10 µM and the Emax is less than 5%. On human mAChR M1 [2], the EC50 was 0.78 µM and the Emax was 46%.
In the same order, the values of `Cn1cc2c(-c3cc(F)c(Cn4cc(C(=O)N[C@H]5CCCC[C@@H]5O)c5nccnc5c4=O)c(F)c3)cccc2n1` [Compound A52, 6-(2,6-Difluoro-4-(2-methyl-2H-indazol-4-yl)benzyl)-N-((1S,2S)-2-hydroxycyclohexyl)-5-oxo-5,6-dihydropyrido[3,4-b]pyrazine-8-carboxamide] are 4.36 µM, 50%, 0.4 µM and 64%.
Consider `Cn1cc2c(-c3cc(F)c(Cn4cc(C(=O)N[C@H]5CCCC[C@@H]5O)c5sccc5c4=O)c(F)c3)cccc2n1` [Compound D31, 5-(2,6-difluoro-4-(2-methyl-2H-indazol-4-yl)benzyl)-N-((1S,2S)-2-hydroxycyclohexyl)-4-oxo-4,5-dihydrothieno[3,2-c]pyridine-7-carboxamide], for which the figures for the concentration for a half-maximal effect (EC50) at human mAChR M1 [1] and at human mAChR M1 [2] were greater than 10 µM and 7.98 µM, respectively. Besides, the figures for the maximal response (Emax) at human mAChR M1 [1] and at human mAChR M1 [2] were less than 5% and 54%, respectively.
In the same order, the values of `Cn1ccc(-c2ccc(Cn3cc(C(=O)NC4CCOC(C)(C)C4)c4occc4c3=O)c(F)c2)n1` (stereo not drawn) [Compound D11, N-(2,2-dimethyltetrahydro-2H-pyran-4-yl)-5-(2-fluoro-4-(1-methyl-1H-pyrazol-3-yl)benzyl)-4-oxo-4,5-dihydrofuro[3,2-c]pyridine-7-carboxamide] are greater than 10 µM, greater than 10 µM, less than 5% and 24%.
Take `Cc1cn2c(=O)n(Cc3ccc(-c4ccn(C)n4)cc3F)cc(C(=O)N[C@H]3CCCC[C@@H]3O)c2n1` [Compound B26, 6-(2-fluoro-4-(1-methyl-1H-pyrazol-3-yl)benzyl)-N-((1S,2S)-2-hydroxycyclohexyl)-2-methyl-5-oxo-5,6-dihydroimidazo[1,2-c]pyrimidine-8-carboxamide]: at human mAChR M1 [1], the EC50 is greater than 10 µM and the Emax is less than 5%. At human mAChR M1 [2], the EC50 turned out to be 5.53 µM and the Emax was 28%.
In the same order, the values of `Cn1nccc1-c1ccc(Cn2cc(C(=O)N[C@H]3CCOC[C@@H]3O)c3ncccc3c2=O)c(F)c1` [Compound A45, 6-(2-fluoro-4-(1-methyl-1H-pyrazol-5-yl)benzyl)-N-((3R,4S)-3-hydroxytetrahydro-2H-pyran-4-yl)-5-oxo-5,6-dihydro-1,6-naphthyridine-8-carboxamide] are greater than 10 µM, less than 5%, 4.37 µM and 70%.
